# Measurements from PubChem BioAssay (NCI).
#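 Values below derive from 48-hour exposures of cells grown in 96-well plates, with endpoints linearly interpolated between the two concentrations bracketing the appropriate inhibition level. TGI: concentration producing complete growth inhibition.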
# Assays:
# Assay in all cases: NCI tumour cell line growth inhibition, 48 h
# [1] = test system: SF-539 CNS
# [2] = test system: KM20L2 colon
# [3] = test system: HL-60(TB) leukemia
# [4] = test system: TK-10 renal
# [5] = test system: OVCAR-5 ovarian
# [6] = test system: SNB-75 CNS
# [7] = test system: MOLT-4 leukemia
# [8] = test system: SK-OV-3 ovarian
# [9] = test system: SK-MEL-28 melanoma
# [10] = test system: NCI-H23 lung
# [11] = test system: SK-MEL-5 melanoma
# [12] = test system: DMS 273 small cell lung
# [13] = test system: KM12 colon
# [14] = test system: OVCAR-3 ovarian
# [15] = test system: HOP-62 NSCLC
# [16] = test system: SF-268 CNS
# [17] = test system: RPMI-8226 leukemia
# [18] = test system: NCI-H460 lung
# [19] = test system: LXFL 529 NSCLC
# [20] = test system: SN12C renal
# [21] = test system: IGROV1 ovarian
# [22] = test system: COLO 205 colon
# [23] = test system: SF-295 CNS
# [24] = test system: HT29 colon
# [25] = test system: OVCAR-4 ovarian
# [26] = test system: CCRF-CEM leukemia
# [27] = test system: CAKI-1 renal
# [28] = test system: HCT-15 colon
# [29] = test system: M14 melanoma
# [30] = test system: SK-MEL-2 melanoma
# [31] = test system: HOP-18 NSCLC
# [32] = test system: U251 CNS
# [33] = test system: A549 NSCLC
# [34] = test system: SW-620 colon
# [35] = test system: A498 renal
# [36] = test system: ACHN renal
# [37] = test system: UO-31 renal
# [38] = test system: K-562 leukemia
# [39] = test system: UACC-257 melanoma
# [40] = test system: UACC-62 melanoma
# [41] = test system: RXF-631 renal
# [42] = test system: M19-MEL melanoma
# [43] = test system: EKVX NSCLC
# [44] = test system: HOP-92 NSCLC
# [45] = test system: NCI-H522 lung
# [46] = test system: NCI-H226 lung
# [47] = test system: DMS 114 small cell lung
# [48] = test system: 786-0 renal
# [49] = test system: SNB-19 CNS
# [50] = test system: OVCAR-8 ovarian
# [51] = test system: MALME-3M melanoma
# [52] = test system: LOX IMVI melanoma
# [53] = test system: RXF 393 renal
# [54] = test system: XF 498 CNS
# [55] = test system: HCC-2998 colon
# [56] = test system: SNB-78 CNS
# [57] = test system: DLD-1 colon
# [58] = test system: HCT-116 colon
smiles,measurement,setting,value
CC(C)N1CC2CC(CN(C(=O)c3ccc(Cl)cc3)C2)C1,TGI,[1],> 100 µM
same,TGI,[2],> 100 µM
same,TGI,[3],> 100 µM
same,TGI,[4],> 100 µM
same,TGI,[5],> 100 µM
same,TGI,[6],> 100 µM
same,TGI,[7],> 100 µM
same,TGI,[8],> 100 µM
same,TGI,[9],> 100 µM
same,TGI,[10],> 100 µM
same,TGI,[11],> 100 µM
same,TGI,[12],> 100 µM
same,TGI,[13],> 100 µM
same,TGI,[14],> 100 µM
same,TGI,[15],> 100 µM
same,TGI,[16],> 100 µM
same,TGI,[17],> 100 µM
same,TGI,[18],> 100 µM
same,TGI,[19],> 100 µM
same,TGI,[20],> 100 µM
same,TGI,[21],> 100 µM
same,TGI,[22],> 100 µM
same,TGI,[23],> 100 µM
same,TGI,[24],> 100 µM
same,TGI,[25],> 100 µM
same,TGI,[26],> 100 µM
same,TGI,[27],> 100 µM
same,TGI,[28],> 100 µM
same,TGI,[29],> 100 µM
same,TGI,[30],> 100 µM
same,TGI,[31],> 100 µM
same,TGI,[32],> 100 µM
same,TGI,[33],> 100 µM
same,TGI,[34],> 100 µM
same,TGI,[35],> 100 µM
same,TGI,[36],> 100 µM
same,TGI,[37],> 100 µM
same,TGI,[38],> 100 µM
same,TGI,[39],> 100 µM
same,TGI,[40],> 100 µM
same,TGI,[41],> 100 µM
same,TGI,[42],> 100 µM
same,TGI,[43],> 100 µM
same,TGI,[44],> 100 µM
same,TGI,[45],> 100 µM
same,TGI,[46],> 100 µM
same,TGI,[47],> 100 µM
same,TGI,[48],> 100 µM
same,TGI,[49],> 100 µM
same,TGI,[50],> 100 µM
same,TGI,[51],> 100 µM
same,TGI,[52],> 100 µM
same,TGI,[53],> 100 µM
same,TGI,[54],> 100 µM
COc1ccc(N=NC2=C(O)CCC2=O)cc1,TGI,[1],> 100 µM
same,TGI,[3],> 100 µM
same,TGI,[4],> 100 µM
same,TGI,[5],> 100 µM
same,TGI,[6],> 100 µM
same,TGI,[7],> 100 µM
same,TGI,[55],> 100 µM
same,TGI,[8],> 100 µM
same,TGI,[9],> 100 µM
same,TGI,[10],> 100 µM
same,TGI,[11],> 100 µM
same,TGI,[12],> 100 µM
same,TGI,[13],> 100 µM
same,TGI,[14],> 100 µM
same,TGI,[15],> 100 µM
same,TGI,[16],> 100 µM
same,TGI,[18],> 100 µM
same,TGI,[20],> 100 µM
same,TGI,[21],> 100 µM
same,TGI,[22],> 100 µM
same,TGI,[23],> 100 µM
same,TGI,[24],> 100 µM
same,TGI,[25],> 100 µM
same,TGI,[56],> 100 µM
same,TGI,[26],> 100 µM
same,TGI,[27],> 100 µM
same,TGI,[28],> 100 µM
same,TGI,[29],> 100 µM
same,TGI,[30],> 100 µM
same,TGI,[31],> 100 µM
same,TGI,[32],> 100 µM
same,TGI,[33],> 100 µM
same,TGI,[57],> 100 µM
same,TGI,[34],> 100 µM
same,TGI,[35],> 100 µM
same,TGI,[36],> 100 µM
same,TGI,[37],> 100 µM
same,TGI,[38],> 100 µM
same,TGI,[39],> 100 µM
same,TGI,[40],30.6 µM
same,TGI,[41],> 100 µM
same,TGI,[42],> 100 µM
same,TGI,[43],> 100 µM
same,TGI,[44],> 100 µM
same,TGI,[46],> 100 µM
same,TGI,[47],> 100 µM
same,TGI,[48],> 100 µM
same,TGI,[58],> 100 µM
same,TGI,[49],> 100 µM
same,TGI,[50],> 100 µM
same,TGI,[51],> 100 µM
same,TGI,[52],> 100 µM
same,TGI,[53],> 100 µM
